Test results reported in ChEMBL document CHEMBL1212808, “The p110 delta structure: mechanisms for selectivity and potency of new PI(3)K inhibitors” (Nat Chem Biol, 2010).
pIC50: −log10 of the molar value.

Tests used:
[1] = biological target: Phosphatidylinositol 4,5-bisphosphate 3-kinase catalytic subunit alpha isoform (Homo sapiens, UniProt P42336); test: Inhibition of p110alpha
[2] = biological target: Phosphatidylinositol 4,5-bisphosphate 3-kinase catalytic subunit beta isoform (Homo sapiens, UniProt P42338); test: Inhibition of p110beta
[3] = biological target: Phosphatidylinositol 4,5-bisphosphate 3-kinase catalytic subunit gamma isoform (Homo sapiens, UniProt P48736); test: Inhibition of p110gamma
Phosphatidylinositol 4,5-bisphosphate 3-kinase catalytic subunit gamma isoform, sequence (P48736 whole entry, canonical isoform): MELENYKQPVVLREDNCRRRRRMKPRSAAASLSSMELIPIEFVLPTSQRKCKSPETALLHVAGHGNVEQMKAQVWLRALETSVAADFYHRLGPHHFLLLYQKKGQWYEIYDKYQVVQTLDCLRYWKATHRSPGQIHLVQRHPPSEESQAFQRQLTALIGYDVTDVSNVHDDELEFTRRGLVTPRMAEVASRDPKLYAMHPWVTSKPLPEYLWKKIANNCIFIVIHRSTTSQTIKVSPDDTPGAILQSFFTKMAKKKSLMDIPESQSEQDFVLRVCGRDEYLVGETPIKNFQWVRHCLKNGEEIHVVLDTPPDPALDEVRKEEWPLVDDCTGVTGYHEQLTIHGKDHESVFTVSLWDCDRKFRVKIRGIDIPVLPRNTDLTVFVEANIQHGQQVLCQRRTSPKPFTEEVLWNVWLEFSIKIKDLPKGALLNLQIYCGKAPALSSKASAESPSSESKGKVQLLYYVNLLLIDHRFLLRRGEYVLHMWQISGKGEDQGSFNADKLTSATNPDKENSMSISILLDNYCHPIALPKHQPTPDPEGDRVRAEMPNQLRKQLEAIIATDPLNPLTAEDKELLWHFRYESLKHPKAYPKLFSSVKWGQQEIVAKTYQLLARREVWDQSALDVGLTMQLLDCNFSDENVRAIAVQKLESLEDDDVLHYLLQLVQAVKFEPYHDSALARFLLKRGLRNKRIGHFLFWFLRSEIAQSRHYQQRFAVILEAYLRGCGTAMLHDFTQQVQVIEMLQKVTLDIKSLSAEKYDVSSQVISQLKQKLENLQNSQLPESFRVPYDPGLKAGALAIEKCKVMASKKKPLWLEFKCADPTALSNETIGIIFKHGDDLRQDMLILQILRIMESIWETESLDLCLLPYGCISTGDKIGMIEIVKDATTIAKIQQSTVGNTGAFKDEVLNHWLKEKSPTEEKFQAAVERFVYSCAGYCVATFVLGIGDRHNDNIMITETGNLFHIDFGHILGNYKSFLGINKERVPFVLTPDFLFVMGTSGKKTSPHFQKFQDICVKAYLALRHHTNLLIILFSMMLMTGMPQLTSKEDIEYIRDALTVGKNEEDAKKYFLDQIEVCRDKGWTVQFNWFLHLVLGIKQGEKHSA

Phosphatidylinositol 4,5-bisphosphate 3-kinase catalytic subunit alpha isoform, sequence (P42336 whole entry, canonical isoform): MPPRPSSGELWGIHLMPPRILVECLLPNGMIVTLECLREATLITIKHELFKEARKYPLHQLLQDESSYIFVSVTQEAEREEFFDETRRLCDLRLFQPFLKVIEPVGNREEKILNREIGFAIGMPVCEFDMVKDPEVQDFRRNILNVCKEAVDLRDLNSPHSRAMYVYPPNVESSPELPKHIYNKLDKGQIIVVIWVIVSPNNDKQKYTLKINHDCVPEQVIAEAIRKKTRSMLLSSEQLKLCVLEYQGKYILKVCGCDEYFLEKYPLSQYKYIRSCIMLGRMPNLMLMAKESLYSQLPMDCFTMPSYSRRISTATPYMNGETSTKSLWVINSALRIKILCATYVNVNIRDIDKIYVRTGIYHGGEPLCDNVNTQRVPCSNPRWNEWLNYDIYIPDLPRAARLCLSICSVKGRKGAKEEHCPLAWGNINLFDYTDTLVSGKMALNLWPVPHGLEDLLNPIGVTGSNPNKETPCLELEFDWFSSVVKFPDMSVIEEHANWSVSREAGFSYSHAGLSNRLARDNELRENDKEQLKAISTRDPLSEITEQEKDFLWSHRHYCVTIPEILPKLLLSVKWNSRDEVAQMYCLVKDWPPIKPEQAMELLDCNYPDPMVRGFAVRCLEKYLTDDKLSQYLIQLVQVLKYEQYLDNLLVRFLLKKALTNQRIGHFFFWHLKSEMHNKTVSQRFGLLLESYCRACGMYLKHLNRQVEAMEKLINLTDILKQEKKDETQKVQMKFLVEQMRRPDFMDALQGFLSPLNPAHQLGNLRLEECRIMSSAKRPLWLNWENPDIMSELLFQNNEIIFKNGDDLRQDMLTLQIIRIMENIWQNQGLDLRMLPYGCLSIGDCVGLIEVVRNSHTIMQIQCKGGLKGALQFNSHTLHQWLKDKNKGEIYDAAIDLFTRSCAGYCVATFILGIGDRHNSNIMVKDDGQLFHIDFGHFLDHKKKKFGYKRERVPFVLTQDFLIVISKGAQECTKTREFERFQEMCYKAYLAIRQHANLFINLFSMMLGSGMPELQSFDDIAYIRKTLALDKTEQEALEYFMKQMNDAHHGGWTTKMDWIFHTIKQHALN
Phosphatidylinositol 4,5-bisphosphate 3-kinase catalytic subunit beta isoform, sequence (P42338 whole entry, canonical isoform): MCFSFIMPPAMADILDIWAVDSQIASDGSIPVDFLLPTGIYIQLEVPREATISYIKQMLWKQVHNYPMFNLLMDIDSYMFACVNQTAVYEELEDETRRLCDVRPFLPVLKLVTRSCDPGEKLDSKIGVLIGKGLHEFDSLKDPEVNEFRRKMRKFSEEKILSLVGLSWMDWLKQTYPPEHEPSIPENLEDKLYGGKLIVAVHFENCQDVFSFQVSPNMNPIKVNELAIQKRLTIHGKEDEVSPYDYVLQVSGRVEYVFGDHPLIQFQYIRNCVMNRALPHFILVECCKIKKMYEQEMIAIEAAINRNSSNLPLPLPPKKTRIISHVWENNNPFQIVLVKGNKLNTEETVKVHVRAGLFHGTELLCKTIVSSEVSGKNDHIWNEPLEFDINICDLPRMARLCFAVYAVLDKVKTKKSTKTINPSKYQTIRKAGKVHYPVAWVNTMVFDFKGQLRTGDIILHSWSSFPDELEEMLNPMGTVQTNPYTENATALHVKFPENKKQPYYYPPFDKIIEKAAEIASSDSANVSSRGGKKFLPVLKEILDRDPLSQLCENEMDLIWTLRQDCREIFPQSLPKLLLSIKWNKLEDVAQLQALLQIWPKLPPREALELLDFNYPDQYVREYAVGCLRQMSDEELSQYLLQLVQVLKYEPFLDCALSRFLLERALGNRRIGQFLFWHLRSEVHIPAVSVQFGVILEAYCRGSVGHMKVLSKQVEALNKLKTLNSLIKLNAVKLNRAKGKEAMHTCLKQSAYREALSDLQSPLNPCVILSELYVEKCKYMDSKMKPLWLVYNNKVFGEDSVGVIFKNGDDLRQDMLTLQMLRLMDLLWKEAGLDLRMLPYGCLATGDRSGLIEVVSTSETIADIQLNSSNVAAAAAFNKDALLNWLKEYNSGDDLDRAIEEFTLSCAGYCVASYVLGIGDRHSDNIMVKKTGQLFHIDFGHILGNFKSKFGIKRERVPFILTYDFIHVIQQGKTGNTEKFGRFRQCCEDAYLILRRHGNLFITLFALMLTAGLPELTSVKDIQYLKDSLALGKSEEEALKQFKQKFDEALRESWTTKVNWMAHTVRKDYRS

Which results are given for `CC(=O)Nc1nc2ccc(-c3nn(Cc4cc5ccccc5nc4N4CCN(C)CC4)c4ncnc(N)c34)cc2s1`?
pIC50 [1]: 6.10; pIC50 [2]: 7.64; pIC50 [3]: 6.73

Which results are given for `CN1CCN(c2nc3ccccc3cc2Cn2nc(-c3ccc4nc(N)sc4c3)c3c(N)ncnc32)CC1`?
pIC50 [1]: 6.86; pIC50 [2]: 8.05; pIC50 [3]: 8.40

What does the source list for `CC(C)n1nc(C#Cc2cccnc2)c2c(N)ncnc21`?
pIC50 [1]: 7.28; pIC50 [2]: 6.18; pIC50 [3]: 6.95

Which results are given for `CC(C)n1nc(C#Cc2cccc(O)c2)c2c(N)ncnc21`?
pIC50 [1]: 7.47; pIC50 [2]: 6.50; pIC50 [3]: 7.16

Which results are given for `COc1cc(Nc2nc3ccccc3nc2NS(=O)(=O)c2ccc(F)cc2)cc(OC)c1`?
pIC50 [1]: 6.40; pIC50 [2]: 5.00; pIC50 [3]: 5.00

`COc1ccccc1-n1c(SCC(=O)Nc2ccc3nccnc3c2)nc2c(c1=O)CCCC2` was tested. Which pIC50 [1] did it give?
Its pIC50 is 5.46.

And the pIC50 [2]?
Its pIC50 is 5.37.

What about the pIC50 [3] of the same molecule?
Its pIC50 is 4.70.
